Measurements published in patent publication US9981951B2, “Crystalline and amorphous forms of Olaparib” (Olon S.P.A., priority 2015, dated 2018).

How the values were obtained:
Type in all cases: physicochemical
[1] = stability of the solid form (air, moisture, heat)
[2] = solubility in various organic solvents and in water; conditions: compared with crystalline forms A and L of Olaparib
[3] = hygroscopicity

Row | Structure (SMILES) | stability to air and heat ([1]; air and heat, long time (30 days)) | stability when exposed to a water-saturated environment ([1]; water-saturated environment) | stability if exposed to the moisture in the air ([1]; exposed to the moisture in the air) | solubility in various organic solvents and in water [2] | hygroscopicity [3]
1 | O=C(c1cc(Cc2n[nH]c(=O)c3ccccc23)ccc1F)N1CCN(C(=O)C2CC2)CC1 [4-[3-(4-cyclopropanecarbonyl-piperazine-1-carbonyl)-4-fluorobenzyl]-2H-phthalazin-2-one] | stable to air and heat for a long time (30 days) | maintains its original physicochemical characteristics | – | – | –
2 | O=C(c1cc(Cc2n[nH]c(=O)c3ccccc23)ccc1F)N1CCN(C(=O)C2CC2)CC1 [amorphous form of Olaparib, 4-[3-(4-cyclopropanecarbonyl-piperazine-1-carbonyl)-4-fluorobenzyl]-2H-phthalazin-2-one] | – | – | stable | better solubility | not hygroscopic
